Measurements from US20120180807A1, “Method for Chemically Modifying the Internal Region of a Hair Shaft” (priority 2011, published 2012).

Assay: Water solubility / dissolving of monomer and polymer (other in-vitro-experiments)
Assay type: physicochemical
From the text: However, dissolving polymer, once it had been dried, takes considerably longer (some hours) than dissolving dry monomer (some seconds). […] All the 20 hair fibres of each sample without H2O2 pre-treatment lost their radioactivity of the cuticle area by washing, whereas all the other samples kept it.

C=CC(=O)OCCCS(=O)(=O)O [3-SPA, 3-sulfopropylacrylate]
water solubility: water soluble | time for dissolving in water (dry / once dried material): some seconds
